Experiments:
Cathepsin D = Cathepsin D (Homo sapiens, UniProt P07339)
Description: Inhibition of human cathepsin D

Beta-secretase 1 = Beta-secretase 1 (Homo sapiens, UniProt P56817)
Description: Inhibition of human BACE1 expressed in Escherichia coli BL21(DE3) by resolved fluorescence assay

Homo sapiens = organism: Homo sapiens; test: Selectivity for human BACE1 over human cathepsin D

Sequence of Cathepsin D (P07339 65-162 limits assumed): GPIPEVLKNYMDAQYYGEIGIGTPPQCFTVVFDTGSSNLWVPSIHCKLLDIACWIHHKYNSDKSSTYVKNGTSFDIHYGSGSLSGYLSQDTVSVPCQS
Sequence of Cathepsin D (P07339 169-412 limits assumed): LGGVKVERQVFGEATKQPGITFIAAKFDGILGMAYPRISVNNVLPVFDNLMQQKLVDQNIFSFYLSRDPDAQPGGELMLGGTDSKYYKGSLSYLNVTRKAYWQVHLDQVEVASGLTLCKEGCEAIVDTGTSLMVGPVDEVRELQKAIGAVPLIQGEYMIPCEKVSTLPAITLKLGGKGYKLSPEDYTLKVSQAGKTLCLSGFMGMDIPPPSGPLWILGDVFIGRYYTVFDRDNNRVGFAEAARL
Sequence of Beta-secretase 1 (P56817 whole entry): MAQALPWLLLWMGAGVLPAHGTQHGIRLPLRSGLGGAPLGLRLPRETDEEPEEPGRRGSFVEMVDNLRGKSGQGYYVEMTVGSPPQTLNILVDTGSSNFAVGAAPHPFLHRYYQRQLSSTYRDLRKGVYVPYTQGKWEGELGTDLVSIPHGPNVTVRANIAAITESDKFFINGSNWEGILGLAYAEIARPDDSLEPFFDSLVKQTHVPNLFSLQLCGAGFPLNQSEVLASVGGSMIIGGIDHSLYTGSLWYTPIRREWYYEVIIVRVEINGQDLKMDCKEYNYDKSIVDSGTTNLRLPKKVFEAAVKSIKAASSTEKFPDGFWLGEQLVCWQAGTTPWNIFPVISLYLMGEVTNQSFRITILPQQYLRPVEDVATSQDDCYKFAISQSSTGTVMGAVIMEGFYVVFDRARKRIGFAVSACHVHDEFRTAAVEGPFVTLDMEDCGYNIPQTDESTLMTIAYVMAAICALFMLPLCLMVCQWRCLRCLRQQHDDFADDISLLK

| Compound | Ki (Cathepsin D) | Ki (Beta-secretase 1) | Ratio Ki (Homo sapiens) |
| --- | --- | --- | --- |
| CC(C)[C@H](NC(=O)[C@@H](C[C@H](O)[C@H](COc1cc(F)cc(F)c1)NC(=O)c1cc(C(=O)N[C@H](C)c2ccccc2)cc(N(C)S(C)(=O)=O)c1)OCc1ccccc1)C(=O)NCc1ccccc1 | 62 nM | 20 nM | 1.6 |
| C=CCO[C@H](C[C@H](O)[C@H](COc1cc(F)cc(F)c1)NC(=O)c1cc(C(=O)N[C@H](C)c2ccccc2)cc(N(C)S(C)(=O)=O)c1)C(=O)N[C@H](C(=O)NCc1ccccc1)C(C)C | 130 nM | 3.3 nM | – |
| CC(C)[C@H](NC(=O)[C@@H](C[C@H](O)[C@H](COc1cc(F)cc(F)c1)NC(=O)c1cc(C(=O)N[C@H](C)c2ccccc2)cc(N(C)S(C)(=O)=O)c1)OCC1CC1)C(=O)NCc1ccccc1 | – | 1.3 nM | – |
| CO[C@H](C[C@H](N=[N+]=[N-])C(COc1cc(F)cc(F)c1)NC(=O)c1cc(C(=O)N[C@H](C)c2ccccc2)cc(N(C)S(C)(=O)=O)c1)C(=O)N[C@H](C(=O)NCc1ccccc1)C(C)C (single isomer, unassigned) | > 5000 nM | 70 nM | – |
| CCO[C@H](C[C@H](O)[C@H](COc1cc(F)cc(F)c1)NC(=O)c1cc(C(=O)N[C@H](C)c2ccccc2)cc(N(C)S(C)(=O)=O)c1)C(=O)N[C@H](C(=O)NCc1ccccc1)C(C)C | 3350 nM | 2.1 nM | > 1500 |
| CCCO[C@H](C[C@H](O)[C@H](COc1cc(F)cc(F)c1)NC(=O)c1cc(C(=O)N[C@H](C)c2ccccc2)cc(N(C)S(C)(=O)=O)c1)C(=O)N[C@H](C(=O)NCc1ccccc1)C(C)C | 61 nM | 3 nM | – |
| CO[C@H](CCC(COc1cc(F)cc(F)c1)NC(=O)c1cc(C(=O)N[C@H](C)c2ccccc2)cc(N(C)S(C)(=O)=O)c1)C(=O)N[C@H](C(=O)NCc1ccccc1)C(C)C (single isomer, unassigned) | > 5000 nM | 130 nM | – |
| CO[C@H](C[C@H](N)C(COc1cc(F)cc(F)c1)NC(=O)c1cc(C(=O)N[C@H](C)c2ccccc2)cc(N(C)S(C)(=O)=O)c1)C(=O)N[C@H](C(=O)NCc1ccccc1)C(C)C (single isomer, unassigned) | > 5000 nM | 140 nM | – |

From ChEMBL document CHEMBL1156935, “Discovery of potent BACE-1 inhibitors containing a new hydroxyethylene (HE) scaffold: exploration of P1' alkoxy residues and an aminoethylene (AE) central core” (Bioorg Med Chem, 2010)
